US12070443B2, “Methods of treating and preventing breast cancer with S-equol” (The Board of Regents of the University of Texas System, priority 2018, dated 2024)
Entries after “also recorded” stand apart in the source; their conditions may differ. Like-named read-outs stand apart in the source and are kept apart here.

Legend:
Ki67 expression = conditions: after two weeks, IMPACT trial; cited from earlier work
TNBC [1] = conditions: cited from earlier work
ERβ pY36 = molecular target: T1, ERβ pY36 (Homo sapiens, UniProt Q92731); experiment: pY36-specific phosphorylation signal in MDA-MB-231 cells; type: cell-based; conditions: MDA-MB-231 cells (FIG. 18A)
T1 construct: MDA-MB-231, a human TNBC breast cancer cell line; endogenous in cells; host or cells: MDA-MB-231 (human TNBC line; also as xenograft tumours in athymic nude mice)
T1 sequence (Q92731 whole entry): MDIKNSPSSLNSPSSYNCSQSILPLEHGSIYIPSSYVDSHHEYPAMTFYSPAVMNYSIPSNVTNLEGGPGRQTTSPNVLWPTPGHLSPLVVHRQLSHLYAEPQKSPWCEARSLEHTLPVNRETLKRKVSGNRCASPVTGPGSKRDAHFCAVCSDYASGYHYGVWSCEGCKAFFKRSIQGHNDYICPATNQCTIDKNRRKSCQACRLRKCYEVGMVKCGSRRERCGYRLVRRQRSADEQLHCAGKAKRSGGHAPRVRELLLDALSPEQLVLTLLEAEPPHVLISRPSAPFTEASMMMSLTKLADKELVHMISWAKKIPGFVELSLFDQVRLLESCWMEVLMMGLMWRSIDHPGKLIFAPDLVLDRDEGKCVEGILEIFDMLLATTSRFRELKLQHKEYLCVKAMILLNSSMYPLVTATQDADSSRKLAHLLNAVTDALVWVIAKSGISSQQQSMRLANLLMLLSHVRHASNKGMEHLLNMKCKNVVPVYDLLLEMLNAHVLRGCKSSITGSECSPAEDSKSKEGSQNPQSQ

TNBC [2] = experiment: Pilot biomarker clinical study of Ki67 in TNBC subjects; type: in vivo, human
Method: A pilot biomarker clinical study was performed in 20 subjects with documented TNBC to determine the effect of the ERβ agonist S-equol on Ki67 an indicator of tumor cell proliferation. Tumor cell proliferation was measured by immunohistological staining for Ki-67. See, FIG. 13 for the outline of the protocol. Ki-67 is encoded by the gene MKI67 gene and is required to maintain individual mitotic chromosomes dispersed in the cytoplasm following nuclear envelope disassembly. Measuring the fraction of Ki-67-positive cells in a tumor is known to be a reliable parameter for assessing cancer patient prognosis. Subjects with TNBC are known to have very high levels of Ki67.
Patients enrolled in the study received a history, physical, laboratory assessment, radiological imaging, and diagnostic biopsies. Immunohistochemistry (IHC) of Ki67 (proliferation marker), total ERβ, and pY36-ERβ (phosphorylated ERβ), B7H1 (also known as PDL-1) and BRCA1 (breast cancer 1, early onset) were conducted using core needle biopsy tissue samples prior to treatment. Patients were given oral S-equol 50 mg, twice daily for approximately two weeks (10-21 days) prior to the scheduled oncologic surgeries or start of primary systemic therapy. Tumor samples were obtained from the surgery or the two-week repeat core needle biopsy. Post-treatment IHC evaluation of Ki67, total ERβ, phosphorylated ERβ (pY36) and BRCA1 were obtained. Ki67 reduction is a validated surrogate marker of both short and long term hormonal therapy efficacy in trials of human breast cancer and was compared pre- and post-treatment with S-equol. […] A c-DNA microarray platform was also used to discover downstream transcriptional targets of ERβ resulting from activation by S-equol.
Women eligible for the study had newly diagnosed, previously untreated, triple negative breast cancer, with an intact primary breast tumor of any size. All stages of the disease were eligible. They took S-equol during the time they underwent standard preoperative evaluation or pre-therapeutic work-up for advanced disease, such as staging procedures or central line placement. If primary surgery was performed, tissue leftover after standard diagnostic evaluation was used for the two-week biomarker assessment. […] See, FIG. 9.
A standard procedure for acquiring core biopsy with a Bard 14-gauge needle was utilized for determining TNBC prior to enrollment. Whenever possible, the tumor tissues used for IHC analyses were acquired at the same time as the diagnostic core biopsy. The tissue samples were sent for staining of total and pY36 ERβ and Ki67, and analyzed. Testing for ERα, PR, and HER-2 was performed using validated methods. TNBC tumors were defined as less than 5% nuclear staining of carcinoma cells for ERα and PR and either 0, 1, or 2+ staining for HER-2 by IHC. Whole-Genome DASL HT platform from Illumina, which is designed for gene expression profiling with extremely low input of RNA (50 pg), was used to interrogate paired FFPE tissue obtained before and after exposure to S-equol.
The primary analysis estimated the geometric mean change of the Ki67 expression from baseline to two weeks. This was performed using a one-sample t-test of the pre/post differences in the log-transformed data, and summarized by the 95% confidence interval. […]

[3] = test system: AT3 mammary tumor cell line; experiment: AT3 mammary tumor challenge in mice, S-equol and/or anti-PD-1; type: in vivo; conditions: AT3 tumors
Method: The following three murine mammary tumor lines were tested to determine the effects of a PD-1 inhibitor, S-equol and a combination of the two therapies on tumor growth: (1) E0771 (B6 background), (2) AT-3 (B6 background), and (3) 4T1 (BalbC background). This experimental design includes four arms (using AT-3 as an example): (1) controls, (2) αPD-1, (3) S-equol, and (4) αPD-1+S-equol (FIG. 3) by injecting into mice 2×10^5 cells subcutaneously into the 4th mammary gland fat pad.

[4] = test system: MDA-MB-231 cell-derived xenograft tumor; experiment: MDA-MB-231 xenograft in athymic nude mice; type: in vivo
Method: Further work in a preclinical animal model supports the notion of using S-equol to treat TNBC breast cancer. In immunocompromised mouse xenograft experiments, which used MDA-MB-231, a human TNBC breast cancer cell line, growth of tumors was suppressed by 60% with S-equol treatment compared to control. 5×10^6 MDA-MB-231 cells were injected orthotopically into mammary gland fat pads of 6 week-old female athymic nude mice (Harlan). When the tumor masses reached 50 to 80 mm^3 (about one week after the inoculation), the mice were given daily subcutaneous injections of S-equol (20 or 60 mg/kg per day) or PBS as a vehicle control. Tumor development was followed by caliper measurements along two orthogonal axes: length (L) and width (W) and volume (V) was estimated by the formula V=[L×(W^2)]/2. Xenograft tumors harvested from mice were fixed in 10% neutral-buffered formalin, dehydrated, embedded in paraffin, and sectioned at 3 μm thickness. Representative tumor sections from vehicle control and S-equol-treated mice were tested for Ki-67 expression to assess cell proliferation, and for ERβ pY36. Statistical significance in the experiments was assessed by two-tailed Student's t test. In all assays, p<0.05 was considered statistically significant. See, Yuan et al. 2016 listed below, which is incorporated by reference herein for all purposes.

[5] = of 17 evaluable patients, S-equol 50 mg twice daily

For `CC/C(=C(\c1ccccc1)c1ccc(OCCN(C)C)cc1)c1ccccc1` [tamoxifen], the “change in the geometric mean of Ki67 expression” value (Ki67 expression) is given as −59.5%.

For atezolizumab: an αPD-L1 antibody, the response rate (TNBC [1]; 21 evaluable PD-L1 expressing TNBC tumors) is given as 19%.

In the case of `CC(C)(C#N)c1cc(Cn2cncn2)cc(C(C)(C)C#N)c1` [anastrazole], the “change in the geometric mean of Ki67 expression” value (Ki67 expression) is listed as −76%.

For `Oc1ccc([C@H]2COc3cc(O)ccc3C2)cc1` [S-equol], the pY36-specific phosphorylation signal (ERβ pY36) was “enhanced”, the “patients with 0-20% reduction in Ki-67” value (TNBC [2]; [5]) was 7 patients and the “patients with greater than 20% reduction in Ki-67” value (TNBC [2]; [5]) was “one”. For the same compound, the “patients with greater than 30% reduction in Ki-67” value (TNBC [2]; [5]) was 4 patients, the “patients with no reduction in Ki-67” value (TNBC [2]; [5]) was 5 patients and the “Ki67 change pre- vs post-treatment” value (TNBC [2]; oral S-equol 50 mg twice daily, 10-21 days, TNBC patients) was “measurable decrease in Ki67; also recorded: measurable decline in Ki67”. The tumor size ([3]; excised tumors (FIG. 4C)) was “reduce tumor size compared to control”, the tumor weight ([3]; anti-PD-1 200 μg every 3 days, S-equol 50 mg/kg per day (FIG. 4B)) was “reduce tumor weight compared to control” and the tumor volume ([3]; anti-PD-1 200 μg every 3 days, S-equol 50 mg/kg per day, over 35 days post-challenge (FIG. 4A)) was “reduce tumor volume compared to control”. The “growth of tumors suppressed compared to control” value ([4]; daily subcutaneous S-equol 20 or 60 mg/kg per day) was 60% and the xenograft tumor growth ([4]; in words (FIGS. 8, 15, 18B)) was “inhibits tumor growth in vivo; also recorded: reduces the growth of TNBC cells; also recorded: inhibited”.

For pembrolizumab: an αPD-1 antibody, the response rate (TNBC [1]; Phase 1, 27 women, pretreated chemotherapy resistant metastatic TNBC expressing PD-L1) is given as 18.4%.

For avelumab: another αPD-L1 antibody, the response rate (TNBC [1]; 168 TNBC tumors unselected for PD-L1 expression) is given as 8.6%.
